Source: patent US6492137B1, “Response element compositions and assays employing same” (The Salk Institute for Biological Studies, priority 1989, dated 2002)

How the values were obtained:
endogenous RA receptor = assay: Delta-MTV-CAT constructs, RA induction in CV-1 cells without cotransfected RAR expression vector; assay type: cell-based, monkey
Description: (§1) Cells were transfected in 10 cm dishes with 10 μg of DNA containing 5 μg of reporter plasmid, 1-2 μg of either RSV-LUC (a), or RSV-βGAL or pCH110 (c and d), pGEM4 as carrier DNA, and for the experiments shown in a and d, 1 μg of RSV-RAR expression vector or the same amount of an RSV vector generating a nonsense transcript. Cells were harvested 1 day after addition of retinoic acid. All CAT assays represent equivalent amounts of β-galactosidase activity; β-GAL assays were normalized to luciferase activity.

RAR = biological target: T1, RAR (Homo sapiens, UniProt P10276); assay: Delta-MTV constructs, RA induction in CV-1 cells with cotransfected RAR expression vector; assay type: cell-based; settings: Delta-MTV-CAT constructs; CV-1 cells
T1 construct: expressed in transfected cells; host or cells: CV-1 (monkey kidney)
T1 sequence (P10276 1-462): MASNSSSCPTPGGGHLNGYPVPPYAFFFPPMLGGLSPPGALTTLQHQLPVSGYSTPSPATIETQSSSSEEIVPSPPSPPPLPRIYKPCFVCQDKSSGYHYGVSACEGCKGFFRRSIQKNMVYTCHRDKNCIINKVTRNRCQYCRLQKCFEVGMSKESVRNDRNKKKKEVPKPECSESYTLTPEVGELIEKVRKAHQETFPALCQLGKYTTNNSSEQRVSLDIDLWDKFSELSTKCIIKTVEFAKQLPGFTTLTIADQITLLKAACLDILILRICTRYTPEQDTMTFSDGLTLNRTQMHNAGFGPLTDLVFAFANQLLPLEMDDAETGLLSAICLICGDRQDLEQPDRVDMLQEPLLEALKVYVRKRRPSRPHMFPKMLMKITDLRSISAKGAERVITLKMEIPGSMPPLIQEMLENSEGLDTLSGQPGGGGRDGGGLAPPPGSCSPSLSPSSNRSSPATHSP
Description: Inspection of the sequences of βRE1, βRE2, and βRE3 (see FIG. 2b) identifies a tandem repeat of the 6 bp motif. The center to center separation of 11 bp between these repeats is one turn of the DNA helix. […] Apparently, a single half site element of the RARβ gene would reciprocally be responsive to the TR, ER, and/or other members of the receptor superfamily.
as §1

RARα = biological target: T2, RARα (Homo sapiens, UniProt P10276); assay: Gel retardation DNA-binding assay with RARα-expressing COS cell extracts; design: expressed in transfected cells; host or cells: COS cells (whole-cell extract); settings: for competition for RARα binding to 32P-labeled βRARE: unlabeled competitor oligonucleotide, COS cell extracts
T2 sequence (P10276 1-462): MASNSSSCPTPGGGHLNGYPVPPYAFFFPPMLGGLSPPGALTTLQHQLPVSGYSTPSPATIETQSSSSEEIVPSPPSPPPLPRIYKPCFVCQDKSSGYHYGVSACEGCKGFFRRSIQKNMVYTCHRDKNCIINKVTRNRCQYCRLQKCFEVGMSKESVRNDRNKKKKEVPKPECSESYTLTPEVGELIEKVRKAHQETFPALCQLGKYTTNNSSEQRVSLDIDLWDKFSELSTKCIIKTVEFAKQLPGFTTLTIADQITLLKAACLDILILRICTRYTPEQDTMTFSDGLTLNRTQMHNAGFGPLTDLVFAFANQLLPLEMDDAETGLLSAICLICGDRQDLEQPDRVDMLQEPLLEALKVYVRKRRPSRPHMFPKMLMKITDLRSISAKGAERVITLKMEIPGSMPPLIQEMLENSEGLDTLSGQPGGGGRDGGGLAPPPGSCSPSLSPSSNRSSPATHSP
Description: (§2) For DNA binding assays, COS cells were cultured in DMEM with 10% calf bovine serum and transfected by the calcium phosphate method with 20 μg of the pCMX receptor expression plasmid for 6 hours followed by a glycerol shock. After incubating the transfected COS cells for another 48 hours, the cells were harvested to prepare extracts for the DNA binding assay, carried out as described by Damm et al., Nature 339: 593-597 (1989). The extracts were made in 20 mM HEPES (pH 7.4), 0.4 M KCl, 2 mM DTT and 20% glycerol. A similar method was employed to prepare a whole cell extract from F9 stem cells. For the binding, 5 μg (COS) or 10 μg (F9) of proteins was incubated on ice for 20 minutes, first in 20 mM HEPES, 80 mM KCl, 1 mM DTT, 0.1% NP40, 2.5 μg of poly dI/dC, and 10% glycerol (cold competitor oligonucleotides, when included, were added during this pre-incubation period). Then 40 fmole of ^32P-labeled oligonucleotide probe (1-2×10^5 cpm, prepared by filling-in reaction using Klenow polymerase in the presence of α-^32P-dCTP) was added to the reaction mixture, followed by incubation at room temperature for 30 minutes. The receptor-DNA complexes were resolved by electrophoresis through 5% polyacrylamide gel containing 5% glycerol at 6 V/cm at room temperature.
Oligonucleotides listed in FIG. 3 were used as a probe to test specific DNA-binding of the RARα and TRβ in a gel retardation assay. On the βRARE, a faint background binding activity was detected in the mock transfected COS cell extract. […] In each case the result obtained from in vivo transactivation and in vitro DNA binding are consistent.
Using the mobility shift assay, the DNA-binding capacity of extracts from COS cells expressing TRβ and RARα to these sequences was also tested. […] This pattern is consistent with that of the in vivo activation (FIG. 4). A reciprocal pattern was obtained when the same oligonucleotides were used to compete RARα binding to the ^32P-labeled βRARE. […] This provides a striking example of the role of half-site spacing in generating a functional response element.

[1] = system: F9 teratocarcinoma stem cells; assay: CAT reporter transfection into RA responsive F9 teratocarcinoma stem cells; assay type: cell-based, mouse; settings: RA 1 μM, 24 hours; no transfected receptor
Description: For cotransfection assays, a monkey kidney cell line CV-1 was kept in Dulbecco's modified Eagle's medium (DMEM) supplemented with 10% charcoal-resin double split calf bovine serum. Transfections were performed via calcium-phosphate precipitation method as described by Umesono, et al. in Cell 57: 1139-1146 (1989), with 0.5 μg of a pRS receptor expression plasmid, 1.0 μg of a reporter CAT plasmid, 5 μg of pRAS-βGAL [Umesono, et al., Cell 57: 1139-1146 (1989)] as an internal control, and 8.5 μg of carrier plasmid pUC19. The cells were transfected for 8 hours; after washing the DNA precipitates, the cells were then incubated for an additional 36 hours with or without the ligand (T3, 100 nM; RA, 1 μM; 1,25-(OH)2 vitamin D3, 100 nM). Cell extracts were prepared for βGAL and CAT assays, as described by Umesono, et al., supra. Transfection of F9 teratocarcinoma cells was carried out employing a similar method except the cells were incubated for 12 hours in the presence of the DNA precipitates, and the RA was added at 1 μM for another 24 hours before harvesting the cells. 2, 5, and 4 μg of the reporter, pRAS-βGAL, and pUC19 were used, respectively.
Similarly, when the same set of reporters as in FIG. 4 were transfected into F9 cells, only MHC-R (5-nucleotide spacer) and TREp are potent RAREs. In contrast, its RARE antecedents (MHC-N, MHC+1, MHC-T) are inert.

TRβ = biological target: T3, TRβ (Homo sapiens, UniProt P10828); assay: Gel retardation DNA-binding assay with TRβ-expressing COS cell extracts; design: expressed in transfected cells; host or cells: COS cells (whole-cell extract); settings: unlabeled competitor oligonucleotide; COS cells expressing TRβ
T3 sequence (P10828 1-461): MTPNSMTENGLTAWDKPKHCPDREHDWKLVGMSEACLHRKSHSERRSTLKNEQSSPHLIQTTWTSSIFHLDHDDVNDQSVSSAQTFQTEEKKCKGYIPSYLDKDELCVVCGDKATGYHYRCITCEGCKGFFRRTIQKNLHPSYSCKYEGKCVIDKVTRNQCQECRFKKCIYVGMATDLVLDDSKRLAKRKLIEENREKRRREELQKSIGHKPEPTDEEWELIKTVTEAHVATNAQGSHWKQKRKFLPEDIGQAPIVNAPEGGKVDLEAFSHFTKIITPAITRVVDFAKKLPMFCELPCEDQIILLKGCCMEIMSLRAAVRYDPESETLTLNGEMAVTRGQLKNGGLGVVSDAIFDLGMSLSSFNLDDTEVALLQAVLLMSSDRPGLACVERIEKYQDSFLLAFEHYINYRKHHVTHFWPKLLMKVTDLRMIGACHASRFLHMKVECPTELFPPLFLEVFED
Description: as §2
Oligonucleotides listed in FIG. 3 were used as a probe to test specific DNA-binding of the RARα and TRβ in a gel retardation assay.
Using the mobility shift assay, the DNA-binding capacity of extracts from COS cells expressing TRβ and RARα to these sequences was also tested.

Substance | RA-dependent induction in the absence of cotransfected RAR expression vector (endogenous RA receptor) | increase of induction by cotransfection of RAR-alpha expression vector (RAR) | RARα binding to labeled oligonucleotide probe (RARα; gel retardation, RARα COS cell extract) | function as RARE in F9 cells [1] | competition for RARα binding to 32P-labeled βRARE (RARα) | competition for TRβ binding (mobility shift assay) (TRβ)
5′-AAGCTTAAG-GGTTCA-CCGAA-AGTTCA-CTCAGCTT-3′ (SEQ ID NO:7) (AAGCTTAAGGGTTCACCGAAAGTTCACTCAGCTT; listed as DNA, chemistry not given here) [βRE3, oligonucleotide including the β retinoic acid response element] | robust RA-dependent induction | two-fold |  |  |  | 
DR-5: perfect tandem repeat of AGGTCA hexamers separated by 5 nucleotides (SEQ ID NO:29) (AGCTTCAGGTCACCAGGAGGTCAGAGAGCT; DNA, backbone not given here; double-stranded DNA response element with agct overhangs, cloned into reporter) |  |  | specific protein-DNA complex | functional RARE |  | 
MHC-R: MHC-T with half-site spacing increased by one nucleotide (SEQ ID NO:24) (AGCTGGAGGTGAACAGGAGGTCAGCAAGCT; DNA, backbone not given here; double-stranded response element with agct overhangs, cloned into reporter plasmid) |  |  |  | potent RAREs | effective competitors | poor competitors
MHC-T: MHC-N with the AGGACA half-site corrected to AGGTCA (SEQ ID NO:23) (AGCTGGAGGTGACAGGAGGTCAGCAAGCT; DNA, backbone not given here; double-stranded response element with agct overhangs, cloned into reporter plasmid) |  |  |  | inert | fails to compete efficiently | efficient competition
